From ChEMBL document CHEMBL4393731, “Discovery of fused bicyclic derivatives of 1H-pyrrolo[1,2-c]imidazol-1-one as VDR signaling regulators” (Bioorg Med Chem, 2019)
Activity calls are given as the source filed them. The rule behind the calls is not given here.

Legend:
[1] = target: T1, Vitamin D3 receptor (Homo sapiens) (UniProt P11473); assay: Modulation of VDR in human HeLa cells assessed as increase in calcitriol-induced upregulation of p62 expression at 10 uM measured after 4 hrs by Western blot analysis; type: cell-based
T1 sequence (whole entry): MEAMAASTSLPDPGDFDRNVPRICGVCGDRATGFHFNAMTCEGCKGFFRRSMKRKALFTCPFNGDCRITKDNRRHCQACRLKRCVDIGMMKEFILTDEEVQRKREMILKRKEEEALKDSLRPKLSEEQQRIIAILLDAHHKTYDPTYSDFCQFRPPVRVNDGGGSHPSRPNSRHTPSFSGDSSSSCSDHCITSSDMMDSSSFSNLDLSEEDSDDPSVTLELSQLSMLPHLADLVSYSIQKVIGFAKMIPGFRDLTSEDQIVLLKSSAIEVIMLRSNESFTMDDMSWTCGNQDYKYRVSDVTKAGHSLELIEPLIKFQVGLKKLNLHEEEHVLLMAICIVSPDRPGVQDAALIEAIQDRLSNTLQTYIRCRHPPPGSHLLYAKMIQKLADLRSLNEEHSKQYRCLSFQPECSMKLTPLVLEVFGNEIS

HeLa [2] = assay: Induction of autophagy in human HeLa cells assessed as calcitriol-induced up regulation of LC3-1 expression at 10 uM measured after 4 hrs by Western blot analysis; type: functional, cell-based
HeLa [3] = assay: Cytotoxicity against human HeLa cells measured after 24 hrs by MTT assay; type: cell-based
[4] = target: Genome polyprotein (dengue virus type 2) (UniProt P29990); assay: Inhibition of Dengue virus 2 NS2B-NS3 protease
[5] = target: T1, Vitamin D3 receptor (Homo sapiens); assay: Modulation of VDR (unknown origin) expressed in human HeLa cells assessed as increase in calcitriol-induced response measured after 24 hrs by luciferase reporter assay; type: cell-based
[6] = target: T1, Vitamin D3 receptor (Homo sapiens); assay: Activation of VDR (unknown origin) expressed in human HeLa cells measured after 24 hrs by luciferase reporter assay; type: cell-based
[7] = target: T1, Vitamin D3 receptor (Homo sapiens); assay: Activation of VDR in human HeLa cells assessed as up regulation of phosphorylated p65 expression at 10 uM measured after 24 hrs in the presence of calcitriol by Western blot analysis; type: cell-based
[8] = target: T1, Vitamin D3 receptor (Homo sapiens); assay: Modulation of VDR in human HeLa cells assessed as down regulation of p65 expression at 10 uM measured after 24 hrs in the presence of calcitriol by Western blot analysis; type: cell-based
HeLa [9] = assay: Up regulation of VDR expression in human HeLa cells at 10 uM measured after 4 hrs in presence of VDR shRNA by Western blot analysis; type: functional, cell-based
HeLa [10] = assay: Induction of autophagy in human HeLa cells transformed with VDR shRNA assessed as effect on p62 expression at 10 uM measured after 4 hrs in presence of calcitriol by Western blot analysis; type: functional, cell-based
HeLa [11] = assay: Induction of autophagy in human HeLa cells transformed with VDR shRNA assessed as up regulation of LC3-1 expression at 10 uM measured after 4 hrs in presence of calcitriol by Western blot analysis; type: functional, cell-based
HeLa [12] = assay: Induction of autophagy in human HeLa cells transformed with VDR shRNA assessed as up regulation of LC3-2 expression at 10 uM measured after 4 hrs in presence of calcitriol by western blot analysis; type: functional, cell-based
[13] = target: T1, Vitamin D3 receptor (Homo sapiens); assay: Modulation of VDR in human HeLa cells assessed as increase in calcitriol-induced upregulation of LC3-2 expression at 10 uM measured after 4 hrs by Western blot analysis; type: cell-based
HeLa [14] = assay: Induction of autophagy in human HeLa cells transformed with VDR shRNA assessed as effect on p62 expression at 10 uM measured after 4 hrs by Western blot analysis; type: functional, cell-based
[15] = target: T1, Vitamin D3 receptor (Homo sapiens); assay: Modulation of VDR in human HeLa cells assessed as increase in calcitriol-induced LC3-2 to LC3-1 ratio at 10 uM measured after 4 hrs by Western blot analysis; type: cell-based
[16] = target: T1, Vitamin D3 receptor (Homo sapiens); assay: Modulation of VDR (unknown origin) expressed in human HeLa cells assessed as increase in calcitriol-induced response at 10 uM measured after 24 hrs by luciferase reporter assay relative to control; type: cell-based
HeLa [17] = assay: Induction of autophagy in human HeLa cells transformed with shRNA against VDR assessed as downregulation of LC3-2 expression at 10 uM measured after 4 hrs; type: functional, cell-based
HeLa [18] = assay: Induction of autophagy in human HeLa cells transformed with VDR shRNA assessed as increase in LC3-2 to LC3-1 ratio at 10 uM measured after 4 hrs in presence of calcitriol by Western blot analysis; type: functional, cell-based

SMILES	Activity [1]	Activity (HeLa [2])	CC10 (HeLa [3]) [µM]	Inhibition (active/not active) [4]	Activity [5]	Activity [6]	Activity [7]	Activity [8]	Activity (HeLa [9])	Activity (HeLa [10])	Activity (HeLa [11])	Activity (HeLa [12])	Activity [13]	Activity (HeLa [14])	Activity [15]	fold change (FC) [16]	Activity (HeLa [17])	Activity (HeLa [18])
O=C1[C@@H]2CCCN2[C@@H](c2ccco2)N1c1ccc([N+](=O)[O-])cc1	Active	Active	> 10	inactive	Dose-dependent effect	inactive	Active	Active	inactive	inactive	Active	Active	Active	inactive	–	–	–	–
O=C1[C@@H]2CCCN2[C@@H](Cc2ccc([N+](=O)[O-])cc2)N1c1ccc([N+](=O)[O-])cc1	–	–	> 10	Active	inactive	inactive	–	–	–	–	–	–	–	–	–	–	–	–
O=C1[C@@H]2CCCN2[C@@H](CCC[C@H]2N(c3ccc([N+](=O)[O-])cc3)C(=O)[C@@H]3CCCN32)N1c1ccc([N+](=O)[O-])cc1	–	–	> 10	inactive	inactive	inactive	–	–	–	–	–	–	–	–	–	–	–	–
O=C1[C@@H]2CCCN2[C@@H](c2ccc(O)cc2)N1c1ccc([N+](=O)[O-])cc1	–	–	> 10	inactive	Dose-dependent effect	inactive	–	–	–	–	–	–	–	–	–	–	–	–
CSCC[C@H](NC(=O)OC(C)(C)C)C(=O)Nc1ccc([C@H]2N(c3ccc([N+](=O)[O-])cc3)C(=O)[C@@H]3CCCN32)cc1	Active	Active	> 10	inactive	Dose-dependent effect	inactive	Active	Active	Active	inactive	Active	Active	Active	inactive	Active	–	–	–
O=C1[C@@H]2CCCN2[C@@H](c2cccs2)N1c1ccc([N+](=O)[O-])cc1	–	–	> 10	inactive	inactive	inactive	–	–	–	–	–	–	–	–	–	–	–	–
O=C1[C@@H]2CCCN2[C@@H](c2ccc(C(F)(F)F)cc2)N1c1ccc([N+](=O)[O-])cc1	–	–	> 10	Active	inactive	inactive	–	–	–	–	–	–	–	–	–	–	–	–
CC(C)c1ccc([C@H]2N(c3ccc([N+](=O)[O-])cc3)C(=O)[C@@H]3CCCN32)cc1	–	–	> 10	Active	inactive	inactive	–	–	–	–	–	–	–	–	–	–	–	–
COc1ccc([C@H]2N(c3ccc([N+](=O)[O-])cc3)C(=O)[C@@H]3CCCN32)cc1	–	–	> 10	Active	inactive	inactive	–	–	–	–	–	–	–	–	–	–	–	–
O=C1[C@@H]2CCCN2[C@@H](c2ccccc2[N+](=O)[O-])N1c1ccc([N+](=O)[O-])cc1	–	–	> 10	inactive	inactive	inactive	–	–	–	–	–	–	–	–	–	–	–	–
COc1cc([C@H]2N(c3ccc([N+](=O)[O-])cc3)C(=O)[C@@H]3CCCN32)ccc1O	Active	Active	> 10	inactive	Dose-dependent effect	inactive	Active	Active	inactive	inactive	Active	Active	Active	inactive	–	–	–	–
O=C1[C@@H]2CCCN2[C@@H](Cc2ccccc2)N1c1ccc([N+](=O)[O-])cc1	–	–	> 10	Active	inactive	inactive	–	–	–	–	–	–	–	–	–	–	–	–
O=C1[C@@H]2CCCN2[C@@H](c2ccc([N+](=O)[O-])cc2)N1c1ccc([N+](=O)[O-])cc1	–	–	> 10	Active	Dose-dependent effect	inactive	–	–	–	–	–	–	–	–	–	–	–	–
COc1ccc(C[C@H]2N(c3ccc([N+](=O)[O-])cc3)C(=O)[C@@H]3CCCN32)cc1OC	Active	inactive	> 10	inactive	Dose-dependent effect	inactive	Active	Active	Active	inactive	Active	–	Active	inactive	Active	2.5 to 3	Active	–
O=C1[C@@H]2CCCN2[C@@H](c2ccc([C@H]3N(c4ccc([N+](=O)[O-])cc4)C(=O)[C@@H]4CCCN43)cc2)N1c1ccc([N+](=O)[O-])cc1	–	–	> 10	inactive	inactive	inactive	–	–	–	–	–	–	–	–	–	–	–	–
O=C1[C@@H]2CCCN2[C@@H](c2ccc(Cl)cc2)N1c1ccc([N+](=O)[O-])cc1	–	–	> 10	Active	inactive	inactive	–	–	–	–	–	–	–	–	–	–	–	–
O=C1[C@@H]2CCCN2[C@@H](c2cccc([N+](=O)[O-])c2)N1c1ccc([N+](=O)[O-])cc1	–	–	> 10	Active	inactive	inactive	–	–	–	–	–	–	–	–	–	–	–	–
O=C1[C@@H]2CCCN2[C@@H](c2ccccc2)N1c1ccc([N+](=O)[O-])cc1	–	–	> 10	Active	inactive	inactive	–	–	–	–	–	–	–	–	–	–	–	–
CSCC[C@H](N)C(=O)Oc1ccc([C@H]2N(c3ccc([N+](=O)[O-])cc3)C(=O)[C@@H]3CCCN32)cc1.Cl	Active	Active	> 10	inactive	Dose-dependent effect	inactive	Active	Active	Active	inactive	Active	Active	Active	inactive	Active	2.5 to 3	–	Active
